Source: article PMC9316000, “Preclinical Drug Pharmacokinetic, Tissue Distribution and Excretion Profiles of the Novel Limonin Derivate HY-071085 as an Anti-Inflammatory and Analgesic Candidate in Rats and Beagle Dogs” (Pharmaceuticals, 2022)
Read-outs that look alike come from different tables or passages of the source.

Tests used:
[1] = Pharmacokinetics after single-dose intragastric administration in rats; format: in vivo, Sprague Dawley rats; conditions: for bioavailability / MRT / AUC / AUC(0-inf) / CL/F / Tmax / Cmax / half-life / Vd/F: rat, plasma; for bioavailability: 3.25 mg/kg intragastric vs intravenous, from AUCs, read-out: absolute oral bioavailability; for AUC: read-out: AUC0-tn; for Vd/F: read-out: Vss/F
Method: Blood samples were collected from the fundus venous plexus at various times within 8 h after administration in order to analyze the concentration of HY-071085 in plasma.
The profiles of the mean plasma concentration of HY-071085 versus time after a single dose in rats are presented in Figure 2 and Figure 3, and the PK parameters are listed in Table 1. […] At the three doses, the AUCtn ratios of the female rats and male rats were 3.5, 3.9 and 2.4, respectively. The AUCtn ratio among male rats was 1:5.16:41.06, and among female rats was 1:5.71:28.20.
In vivo PK profiling in the rats: Sprague Dawley rats (approximately 177–221 g in weight) were purchased from Shanghai Xipur-Bikai Experimental Animal Co., Ltd. (Shanghai, China). Before the experiment, several rats were randomly divided into several groups, half males and half females in each group, fasting but free to drink water for 12 h. The dosage of the rats was dependent on the drug pharmacology: the HY-071085 active pharmaceutical ingredients were administered with a dosage volume of 0.25 mL/100 g body weight. The whole-blood samples were centrifuged at 8000 rpm for 5 min, and the plasma samples were separated and stored at –80 °C until the analysis.
According to the obtained plasma concentration time data, the pharmacokinetic parameters were calculated using Phoenix WinNonlin 8.1 software. The pharmacokinetic parameters—i.e., the area under the curve (AUC), mean residence time (MRT), clearance rate (Cl/F) and steady-state apparent distribution volume (Vss/F)—were calculated by the method of moments, which was estimated according to the following formulae: AUCtn=∑Ci+Ci−1ti−ti−1/2 AUC∞=AUCtn+Cm/λ AUMCtn=∑tiCi+ti−1Ci−1ti−ti−1/2 AUMC∞=AUMCtn+Ctntn/λ+1/λ^2 MRT=AUMC∞/AUC∞ Cl/F=Dose/AUC Vss/F=Cl∗MRT where Ctn is the plasma concentration of tn at the last point after administration, and the elimination rate constant was obtained by ln(concentration) time linear regression.
Due to the drug having significant individual differences in rats, it could not be uniformly fitted with a PK atrioventricular model; as such, the pharmacokinetic parameters analyzed in this study were calculated using a non-atrioventricular model. The pharmacokinetic parameters are defined as follows: Cmax is the maximum blood concentration after administration and absorption, Tmax is the time required to reach Cmax, t1/2 is the time required to eliminate half of the plasma drug concentration after the drug distribution in the body reaches equilibrium, Cl/F is the apparent clearance rate, AUC0-tn is the area under the blood concentration time curve within the dosing interval, AUC0-∞ is the area under the plasma concentration time curve from 0 to infinity, MRT is the average time that all drug molecules stay in the body, and Vss/F is the steady-state apparent distribution volume, which is the product of the clearance rate and average residence time.

[2] = Plasma protein binding, rat plasma; format: in vitro ADME; conditions: read-out: plasma protein binding rate (converted)
Method: The PPB rate in dogs was about 40% at different concentrations in the concentration range (50–400 ng/mL), and in rats it was about 75%. The PPB rate in human plasma varied greatly at different concentrations, ranging from 100% at a low drug concentration to 58% at a high drug concentration, as shown in Table 4.

[3] = parameters: method as in earlier work; conditions: Temp 25℃; cited from earlier work
[4] = Sprague Dawley, po, female rats, S-IG 3.25 mg/kg
[5] = Sprague Dawley, po, female rats, S-IG 6.5 mg/kg
[6] = Sprague Dawley, po, female rats, S-IG 13 mg/kg
[7] = Sprague Dawley, po, male rats, S-IG 3.25 mg/kg
[8] = Sprague Dawley, po, male rats, S-IG 6.5 mg/kg
[9] = Sprague Dawley, po, male rats, S-IG 13 mg/kg
[10] = Sprague-Dawley, po, female rats, S-IG 3.25 mg/kg
[11] = Sprague-Dawley, po, female rats, S-IG 6.5 mg/kg
[12] = Sprague-Dawley, po, female rats, S-IG 13 mg/kg
[13] = Sprague-Dawley, po, male rats, S-IG 3.25 mg/kg
[14] = Sprague-Dawley, po, male rats, S-IG 6.5 mg/kg
[15] = Sprague-Dawley, po, male rats, S-IG 13 mg/kg

In the case of `CC1(C)OC2CC(=O)OCC23C1C/C(=N\OCCN1CCOCC1)C1(C)C3CC[C@@]2(C)[C@H](c3ccoc3)OC(=O)C3OC312` (stereo partly drawn) [HY-071085, (12S,12aS,E)-12-(furan-3-yl)-6,6,8a,12a-tetramethyl-8-((2-morpholinoethoxy)imino)dodecahydro-1H,3H-oxireno [2,3-d]pyrano [4’,3’:3,3a]isobenzofuro [5,4-f]isochromene-3,10(9aH)-dione], the “AUCtn ratio of female rats and male rats” value ([1]; S-IG 3.25 mg/kg) is reported as 3.5, the “AUCtn ratio of female rats and male rats” value ([1]; S-IG 6.5 mg/kg) is reported as 3.9 and the “AUCtn ratio of female rats and male rats” value ([1]; S-IG 13 mg/kg) is reported as 2.4. The bioavailability ([1]; Sprague Dawley, oral, male rats) was 2.83%, the bioavailability ([1]; Sprague Dawley, po, female rats) was 10.8% and the MRT [1, 4] was 4.06 ± 0.82 h. It also gave an AUC [1, 4] of 73.7 ± 25.3 ng·h/mL, an AUC(0-inf) [1, 5] of 429 ± 204 ng·h/mL and a CL/F [1, 5] of 302 mL/min/kg. For the same compound, the MRT [1, 5] was 2.57 ± 0.64 h, the AUC [1, 5] was 421 ± 205 ng·h/mL and the MRT [1, 6] was 2.29 ± 0.92 h. For the same compound, the Tmax [1, 6] was 0.95 ± 0.51 h, the AUC [1, 6] was 2080 ± 407 ng·h/mL and the bioavailability ([1]; Sprague Dawley, po, male rats) was 2.8%. It also gave an MRT [1, 7] of 3.48 ± 1.98 h, an AUC [1, 7] of 20.8 ± 3.01 ng·h/mL and an AUC(0-inf) [1, 8] of 125 ± 72.3 ng·h/mL. It also gave a CL/F [1, 8] of 1180 mL/min/kg, an MRT [1, 8] of 2.89 ± 1.87 h and an AUC [1, 8] of 108 ± 54.2 ng·h/mL. The MRT [1, 9] was 1.94 ± 0.39 h, the AUC [1, 9] was 855 ± 290 ng·h/mL and the Cmax [1, 10] was 20.4 ± 9.08 ng/mL. It also gave a Tmax [1, 10] of 0.7 ± 0.73 h, a half-life [1, 10] of 2.16 ± 1.13 h and a Cmax [1, 11] of 145 ± 64.5 ng/mL. For the same compound, the Tmax [1, 11] was 0.9 ± 0.68 h, the half-life [1, 11] was 1.3 ± 0.36 h and the Vd/F [1, 11] was 36.3 ± 23.2 L/kg. For the same compound, the Cmax [1, 12] was 761 ± 322 ng/mL, the half-life [1, 12] was 0.9 ± 0.42 h and the Cmax [1, 13] was 11.3 ± 4.54 ng/mL. The Tmax [1, 13] was 0.22 ± 0.04 h, the half-life [1, 13] was 2.35 ± 1.27 h and the Cmax [1, 14] was 107 ± 139 ng/mL. It also gave a Tmax [1, 14] of 0.45 ± 0.59 h, a half-life [1, 14] of 1.98 ± 1.04 h and a Vd/F [1, 14] of 172 ± 70.3 L/kg. For the same compound, the Cmax [1, 15] was 381 ± 152 ng/mL, the Tmax [1, 15] was 0.85 ± 0.45 h and the half-life [1, 15] was 1.21 ± 0.31 h. For the same compound, the “drug exposure of female rats relative to male rats” value ([1]; single-dose intragastric administration) was “about three times”, the fraction unbound at 50 ng/mL ([2]; 50 ng/mL, mean) was 0.261 and the fraction unbound at 100 ng/mL ([2]; 100 ng/mL, mean) was 0.247. For the same compound, the fraction unbound at 200 ng/mL ([2]; 200 ng/mL, mean) was 0.228, the fraction unbound at 400 ng/mL ([2]; 400 ng/mL, mean) was 0.211 and the fraction unbound ([2]; rat, rats, concentration range 50–400 ng/mL) was roughly 0.25. The Intrinsic solubility [3] was 4500 µg/mL.
